{"source": "paper PMC5007552", "about": "“The hVps34‐SGK3 pathway alleviates sustained PI3K/Akt inhibition by stimulating mTORC1 and tumour growth” (The EMBO Journal, 2016)", "test_system": "ZR-75-1 cells", "assay": "NanoString human kinome mRNA quantification", "format": "cell-based", "conditions": "for Normalised counts: single replicates", "source_text": "Human mRNAs were hybridised to NanoString human kinome and control code sets, then subjected to quantification using NanoString software. […] To permit data compaction, and simple kinome‐wide comparisons, the fold changes are log2 transformed. […] Cell pellets were resuspended at a concentration of ~6,500 cells/μl in RLT buffer (Qiagen). […] For total copy numbers, triplicate normalised count values were averaged, and to calculate fold induction, means were divided by triplicate mean values from matched DMSO controls. P‐values were calculated using unpaired t‐test (GraphPad Prism software) by employing treated and control count data for each kinase mRNA.", "note": "Several values for one entry are separate records, joined by “and”; a condition that tells them apart may be missing. Equal values may be shown once.", "data": [{"compound": "NC1(c2ccc(-c3nc4ccn5c(=O)[nH]nc5c4cc3-c3ccccc3)cc2)CCC1", "note": "[MK-2206]", "values": [{"measurement": "CDK18 normalised counts (replicates)", "setting": "CDK18 mRNA", "value": "93.28 and 102.4 and 103.9"}, {"measurement": "CDK19 average normalised counts", "setting": "CDK19 mRNA", "value": 336.707}, {"measurement": "CDK19 normalised counts (replicates)", "setting": "CDK19 mRNA", "value": "340.52 and 347.39 and 322.21"}, {"measurement": "CDK20 average normalised counts", "setting": "CDK20 mRNA", "value": 89.7167}, {"measurement": "CDK20 normalised counts (replicates)", "setting": "CDK20 mRNA", "value": "106.01 and 80.68 and 82.46"}, {"measurement": "CDKL1 average normalised counts", "setting": "CDKL1 mRNA", "value": 1}, {"measurement": "CDKL1 normalised counts (replicates)", "setting": "CDKL1 mRNA", "value": 1}, {"measurement": "CDKL2 average normalised counts", "setting": "CDKL2 mRNA", "value": 5.853}, {"measurement": "CDKL2 normalised counts (replicates)", "setting": "CDKL2 mRNA", "value": "6.93 and 5.97 and 4.66"}, {"measurement": "CDKL3 average normalised counts", "setting": "CDKL3 mRNA", "value": 93.1667}, {"measurement": "CDKL3 normalised counts (replicates)", "setting": "CDKL3 mRNA", "value": "98.74 and 82.42 and 98.34"}, {"measurement": "CDKL4 average normalised counts", "setting": "CDKL4 mRNA", "value": 49.8833}, {"measurement": "CDKL4 normalised counts (replicates)", "setting": "CDKL4 mRNA", "value": "49.65 and 57.23 and 42.77"}, {"measurement": "CDKL5 average normalised counts", "setting": "CDKL5 mRNA", "value": 46.4467}, {"measurement": "CDKL5 normalised counts (replicates)", "setting": "CDKL5 mRNA", "value": "46.93 and 52.02 and 40.39"}, {"measurement": "CHEK1 average normalised counts", "setting": "CHEK1 mRNA", "value": 416.797}, {"measurement": "CHEK1 normalised counts (replicates)", "setting": "CHEK1 mRNA", "value": "440.51 and 390.82 and 419.06"}, {"measurement": "CHEK2 average normalised counts", "setting": "CHEK2 mRNA", "value": 813.71}, {"measurement": "CHEK2 normalised counts (replicates)", "setting": "CHEK2 mRNA", "value": "824.09 and 812.16 and 804.88"}, {"measurement": "CHUK average normalised counts", "setting": "CHUK mRNA", "value": 732.773}, {"measurement": "CHUK normalised counts (replicates)", "setting": "CHUK mRNA", "value": "715.01 and 761.78 and 721.53"}, {"measurement": "CIT average normalised counts", "setting": "CIT mRNA", "value": 394.403}, {"measurement": "CIT normalised counts (replicates)", "setting": "CIT mRNA", "value": "393.24 and 389.96 and 400.01"}, {"measurement": "CLK1 average normalised counts", "setting": "CLK1 mRNA", "value": 994.453}, {"measurement": "CLK1 normalised counts (replicates)", "setting": "CLK1 mRNA", "value": "974.07 and 1043.25 and 966.04"}, {"measurement": "CLK2 average normalised counts", "setting": "CLK2 mRNA", "value": 1169.5}, {"measurement": "CLK2 normalised counts (replicates)", "setting": "CLK2 mRNA", "value": "1152.23 and 1182.25 and 1174.03"}, {"measurement": "CLK3 average normalised counts", "setting": "CLK3 mRNA", "value": 710.143}, {"measurement": "CLK3 normalised counts (replicates)", "setting": "CLK3 mRNA", "value": "731.38 and 705.31 and 693.74"}, {"measurement": "CLK4 average normalised counts", "setting": "CLK4 mRNA", "value": 709.387}, {"measurement": "CLK4 normalised counts (replicates)", "setting": "CLK4 mRNA", "value": "719.56 and 687.07 and 721.53"}, {"measurement": "COL4A3BP average normalised counts", "setting": "COL4A3BP mRNA", "value": 420.653}, {"measurement": "COL4A3BP normalised counts (replicates)", "setting": "COL4A3BP mRNA", "value": "415.06 and 433.39 and 413.51"}, {"measurement": "CPNE3 normalised counts (replicates)", "setting": "CPNE3 mRNA", "value": 2313.35}, {"measurement": "CSF1R average normalised counts", "setting": "CSF1R mRNA", "value": 1}, {"measurement": "CSF1R normalised counts (replicates)", "setting": "CSF1R mRNA", "value": 1}, {"measurement": "CSK average normalised counts", "setting": "CSK mRNA", "value": 629.517}, {"measurement": "CSK normalised counts (replicates)", "setting": "CSK mRNA", "value": "633.21 and 603.67 and 651.67"}, {"measurement": "CSNK1A1L average normalised counts", "setting": "CSNK1A1L mRNA", "value": 2.067}, {"measurement": "CSNK1A1L normalised counts (replicates)", "setting": "CSNK1A1L mRNA", "value": "4.2 and 1 (2×)"}, {"measurement": "CSNK1A1 average normalised counts", "setting": "CSNK1A1 mRNA", "value": 854.287}, {"measurement": "CSNK1A1 normalised counts (replicates)", "setting": "CSNK1A1 mRNA", "value": "855.9 and 833.01 and 873.95"}, {"measurement": "CSNK1D average normalised counts", "setting": "CSNK1D mRNA", "value": 6324.07}, {"measurement": "CSNK1D normalised counts (replicates)", "setting": "CSNK1D mRNA", "value": "6300.6 and 6273.94 and 6397.68"}, {"measurement": "CSNK1E average normalised counts", "setting": "CSNK1E mRNA", "value": 1485.08}, {"measurement": "CSNK1E normalised counts (replicates)", "setting": "CSNK1E mRNA", "value": "1520.36 and 1448.08 and 1486.81"}, {"measurement": "Average normalised counts", "setting": "CSNK1G1 mRNA", "value": 1243.9}, {"measurement": "Normalised counts", "setting": "CSNK1G1 mRNA", "value": "1266.76 and 1245.67 and 1219.28"}, {"measurement": "Average normalised counts", "setting": "CSNK1G2 mRNA", "value": 674.087}, {"measurement": "Normalised counts", "setting": "CSNK1G2 mRNA", "value": "671.38 and 671.43 and 679.45"}, {"measurement": "Average normalised counts", "setting": "CSNK1G3 mRNA", "value": 1032.23}, {"measurement": "Normalised counts", "setting": "CSNK1G3 mRNA", "value": "1024.97 and 1049.33 and 1022.4"}, {"measurement": "Average normalised counts", "setting": "CSNK2A1 mRNA", "value": 568.443}, {"measurement": "Normalised counts", "setting": "CSNK2A1 mRNA", "value": "546.86 and 575.87 and 582.6"}, {"measurement": "Average normalised counts", "setting": "CSNK2A2 mRNA", "value": 157.413}, {"measurement": "Normalised counts", "setting": "CSNK2A2 mRNA", "value": "146.91 and 157.13 and 168.2"}, {"measurement": "Average normalised counts", "setting": "DAPK1 mRNA", "value": 21.41}, {"measurement": "Normalised counts", "setting": "DAPK1 mRNA", "value": "22.38 and 18.13 and 23.72"}, {"measurement": "Average normalised counts", "setting": "DAPK2 mRNA", "value": 44.4967}, {"measurement": "Normalised counts", "setting": "DAPK2 mRNA", "value": "37.84 and 52.88 and 42.77"}, {"measurement": "Average normalised counts", "setting": "DCLK1 mRNA", "value": 64.6967}, {"measurement": "Normalised counts", "setting": "DCLK1 mRNA", "value": "61.47 and 58.1 and 74.52"}, {"measurement": "Average normalised counts", "setting": "DCLK2 mRNA", "value": 1}, {"measurement": "Normalised counts", "setting": "DCLK2 mRNA", "value": 1}, {"measurement": "Average normalised counts", "setting": "DCLK3 mRNA", "value": 1}, {"measurement": "Normalised counts", "setting": "DCLK3 mRNA", "value": 1}, {"measurement": "Normalised counts", "setting": "DDR1 mRNA", "value": 2268.77}, {"measurement": "Average normalised counts", "setting": "DDR2 mRNA", "value": 24.12}, {"measurement": "Normalised counts", "setting": "DDR2 mRNA", "value": "24.2 and 26.82"}, {"measurement": "Average normalised counts", "setting": "DMPK mRNA", "value": 79.4267}, {"measurement": "Normalised counts", "setting": "DMPK mRNA", "value": "89.65 and 78.08 and 70.55"}, {"measurement": "Average normalised counts", "setting": "DSTYK mRNA", "value": 288.937}, {"measurement": "Normalised counts", "setting": "DSTYK mRNA", "value": "315.98 and 310.3"}, {"measurement": "Average normalised counts", "setting": "DYRK1A mRNA", "value": 1263.91}, {"measurement": "Normalised counts", "setting": "DYRK1A mRNA", "value": "1248.58 and 1277.81 and 1265.33"}, {"measurement": "Average normalised counts", "setting": "DYRK1B mRNA", "value": 113.827}, {"measurement": "Normalised counts", "setting": "DYRK1B mRNA", "value": "104.19 and 111.96 and 125.33"}, {"measurement": "Average normalised counts", "setting": "DYRK2 mRNA", "value": 852.053}, {"measurement": "Normalised counts", "setting": "DYRK2 mRNA", "value": "855.9 and 810.43 and 889.83"}, {"measurement": "Average normalised counts", "setting": "DYRK3 mRNA", "value": 83.6267}, {"measurement": "Normalised counts", "setting": "DYRK3 mRNA", "value": "80.56 and 90.24 and 80.08"}, {"measurement": "Average normalised counts", "setting": "DYRK4 mRNA", "value": 50.6933}, {"measurement": "Normalised counts", "setting": "DYRK4 mRNA", "value": "52.38 and 53.75 and 45.95"}, {"measurement": "Average normalised counts", "setting": "EEF2K mRNA", "value": 449.027}, {"measurement": "Normalised counts", "setting": "EEF2K mRNA", "value": "425.05 and 457.72 and 464.31"}, {"measurement": "Average normalised counts", "setting": "EGFR mRNA", "value": 78.07}]}]}
